Assay results: US20220372040A1, “METTL3 MODULATORS” (Accent Therapeutics, Inc., priority 2020, published 2022)
Counter-ions that a name gives are not always drawn. Like-named read-outs stand apart in the source and are kept apart here.

Tests used:
Type in all cases: biochemical
[1] = target: PRMT5-MEP50 (Homo sapiens, UniProt O14744); test: PRMT5 assay (3H-SAM flashplate scintillation); settings: PRMT5-MEP50 2.5 nM, histone H4 peptide 100 nM, 3H-SAM 250 nM, 60 min
Protocol: Assays were performed in a 25 μl-volume in 384-well V-bottom polypropylene microplates (Greiner Bio-One, cat. No. 781280) at ambient temperature. Optimized 1× assay buffer was 20 mM Tris-HCl pH 8.0, 1 mM DTT, […]. For compound screening PRMT5-MEP50 (final concentration, f.c.=2.5 nM) was added using a Multidrop Combi (ThermoFisher Scientific, Waltham, Mass.) and preincubated for 5 min. Reactions were started by adding 3′ biotinylated histone H4 peptide acetylated on serine 1 (Ac-[…]-Biotin) (f.c.=100 nM) and 3H-SAM (f.c.=250 nM) substrates. Reactions proceeded for 60 minutes and were quenched with excess non-radioactive SAM (f.c.=15 μM). The reactions were then transferred to streptavidin-coated flashplates and incubated for 2 hours at 25° C. Following two washing cycles with 0.1% Tween-20, the plates were sealed and read on a TopCount (PerkinElmer, Waltham, Mass.) plate-based scintillation counter. For determination of kinetic parameters, reaction times were optimized so that measurements were taken during the initial velocity phase of the reaction.

[2] = target: METTL1/WDR4 (Homo sapiens, UniProt Q9UBP6); test: METTL1 assay (3H-SAM flashplate scintillation)
Protocol: (§1) Assays were performed in a 25 μl-volume in 384-well V-bottom polypropylene microplates (Greiner Bio-One, cat. No. 781280) at ambient temperature. Optimized 1× assay buffer was 20 mM HEPES pH 7.5, 50 mM KCl, 250 μM MgCl2, 1 mM DTT, 0.01% Tween, 0.01% BSG, 0.004 U/μl RNAseOUT (cat. No. 10777019, ThermoFisher Scientific, Waltham, Mass.). For compound screening METTL1/WDR4 (final concentration, f.c.=6.25 nM) was added using a Multidrop Combi (ThermoFisher Scientific, Waltham, Mass.) and preincubated for 5 min. Reactions were started by adding 3′ biotinylated RNA ([…]-biotin) (f.c.=25 nM) and 3H-SAM (f.c.=60 nM) substrates. Reactions proceeded for 20 minutes and were quenched with excess non-radioactive SAM (f.c.=15 μM). The reactions were then transferred to streptavidin-coated flashplates and incubated for 2 hours at 25° C. Following two washing cycles with 0.1% Tween-20, the plates were sealed and read on a TopCount (PerkinElmer, Waltham, Mass.) plate-based scintillation counter. For determination of kinetic parameters, reaction times were optimized so that measurements were taken during the initial velocity phase of the reaction.

[3] = target: METTL3/METTL14 (Homo sapiens, UniProt Q86U44); test: METTL3-14 standard enzyme assay (3H-SAM flashplate scintillation); settings: METTL3/METTL14 2.5 nM, RNA 100 nM, 3H-SAM 100 nM, 30 min
Protocol: METTL3-14 Standard Enzyme Assay
Assays were performed in a 25 μl-volume in 384-well V-bottom polypropylene microplates (Greiner Bio-One, cat. No. 781280) at ambient temperature. Optimized 1× assay buffer was 20 mM HEPES pH 7.5, 50 mM KCl, 250 μM MgCl2, 1 mM DTT, 0.01% Tween, 0.01% BSG, 0.004 U/μl RNAseOUT (cat. No. 10777019, ThermoFisher Scientific, Waltham, Mass.). For compound screening METTL3/METTL14 (final concentration, f.c.=2.5 nM) was added using a Multidrop Combi (ThermoFisher Scientific, Waltham, Mass.) and preincubated for 5 min. Reactions were started by adding 3′ biotinylated RNA (UCUGGACUAAA-biotin) (f.c.=100 nM) and 3H-SAM (f.c.=100 nM) substrates. Reactions proceeded for 30 minutes and were quenched with excess non-radioactive SAM (f.c.=15 μM). The reactions were then transferred to streptavidin-coated flashplates and incubated for 2 hours at 25° C. Following two washing cycles with 0.1% Tween-20, the plates were sealed and read on a TopCount (PerkinElmer, Waltham, Mass.) plate-based scintillation counter. For determination of kinetic parameters, reaction times were optimized so that measurements were taken during the initial velocity phase of the reaction.

[4] = target: T1, METTL16 (Homo sapiens, UniProt Q86W50); test: METTL16 assay (3H-SAM flashplate scintillation); settings: METTL16 100 nM, RNA 50 nM, 3H-SAM 200 nM, SAM 800 nM, 20 min
T1 sequence (Q86W50 1-562): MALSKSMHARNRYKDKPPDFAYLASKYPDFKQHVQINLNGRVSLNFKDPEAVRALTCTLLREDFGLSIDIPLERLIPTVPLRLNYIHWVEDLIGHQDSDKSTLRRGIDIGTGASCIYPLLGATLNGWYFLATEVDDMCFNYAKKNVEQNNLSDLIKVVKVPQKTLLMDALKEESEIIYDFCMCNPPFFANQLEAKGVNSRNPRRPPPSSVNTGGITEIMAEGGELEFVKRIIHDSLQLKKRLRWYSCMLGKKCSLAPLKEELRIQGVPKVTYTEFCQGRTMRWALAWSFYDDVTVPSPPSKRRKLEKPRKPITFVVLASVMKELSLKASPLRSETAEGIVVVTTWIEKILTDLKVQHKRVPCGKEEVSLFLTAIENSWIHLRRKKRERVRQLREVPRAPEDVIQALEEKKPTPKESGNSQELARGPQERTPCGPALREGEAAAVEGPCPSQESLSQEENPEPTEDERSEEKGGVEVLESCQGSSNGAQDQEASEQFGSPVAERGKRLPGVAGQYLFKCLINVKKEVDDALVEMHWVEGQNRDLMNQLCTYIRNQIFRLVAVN
Protocol: as §1, with “KCl,” for “KCl, 250 μM MgCl2,”, “METTL16” for “METTL1/WDR4”, “f.c.=100” for “f.c.=6.25”, “(f.c.=50 nM), 3H-SAM (f.c.=200” for “(f.c.=25”, “non-radiolabeled SAM (f.c.=800” for “3H-SAM (f.c.=60”, “(f.c.=100” for “(f.c.=15”

[5] = METTL1/WDR4 6.25 nM, RNA 25 nM, 3H-SAM 60 nM, 20 min, read-out: METTL1 IC50

Chain of METTL3/METTL14 (Q86U44 whole entry, species assumed): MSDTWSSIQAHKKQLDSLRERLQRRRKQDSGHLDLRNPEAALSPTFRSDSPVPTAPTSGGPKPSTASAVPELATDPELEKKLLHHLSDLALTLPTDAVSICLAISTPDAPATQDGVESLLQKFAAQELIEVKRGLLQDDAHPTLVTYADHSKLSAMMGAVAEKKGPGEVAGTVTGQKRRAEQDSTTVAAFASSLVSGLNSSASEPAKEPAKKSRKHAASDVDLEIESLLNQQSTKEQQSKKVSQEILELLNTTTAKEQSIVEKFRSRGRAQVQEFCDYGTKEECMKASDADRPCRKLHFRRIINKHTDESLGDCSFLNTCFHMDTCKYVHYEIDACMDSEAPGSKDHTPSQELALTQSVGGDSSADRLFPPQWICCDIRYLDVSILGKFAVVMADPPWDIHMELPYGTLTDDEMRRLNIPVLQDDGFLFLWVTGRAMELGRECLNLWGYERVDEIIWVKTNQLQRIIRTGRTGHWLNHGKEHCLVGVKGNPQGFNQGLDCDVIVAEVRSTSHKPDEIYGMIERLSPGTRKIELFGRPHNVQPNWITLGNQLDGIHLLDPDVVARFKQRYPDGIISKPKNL
Chain of METTL3/METTL14 (Q9HCE5 whole entry partner, species assumed): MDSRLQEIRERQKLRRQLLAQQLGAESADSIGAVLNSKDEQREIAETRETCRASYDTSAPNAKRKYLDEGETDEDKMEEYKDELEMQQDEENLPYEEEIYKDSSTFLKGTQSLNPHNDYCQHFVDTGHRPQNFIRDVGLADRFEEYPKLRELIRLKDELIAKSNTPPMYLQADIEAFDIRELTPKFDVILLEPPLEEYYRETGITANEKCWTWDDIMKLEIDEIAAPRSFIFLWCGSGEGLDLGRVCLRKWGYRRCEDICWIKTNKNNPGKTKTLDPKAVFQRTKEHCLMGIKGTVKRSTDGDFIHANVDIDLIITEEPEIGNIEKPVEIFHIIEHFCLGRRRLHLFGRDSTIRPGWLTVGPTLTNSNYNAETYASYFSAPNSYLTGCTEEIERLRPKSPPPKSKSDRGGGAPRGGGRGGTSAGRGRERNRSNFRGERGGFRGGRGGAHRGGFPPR
Chain of PRMT5-MEP50 (O14744 whole entry): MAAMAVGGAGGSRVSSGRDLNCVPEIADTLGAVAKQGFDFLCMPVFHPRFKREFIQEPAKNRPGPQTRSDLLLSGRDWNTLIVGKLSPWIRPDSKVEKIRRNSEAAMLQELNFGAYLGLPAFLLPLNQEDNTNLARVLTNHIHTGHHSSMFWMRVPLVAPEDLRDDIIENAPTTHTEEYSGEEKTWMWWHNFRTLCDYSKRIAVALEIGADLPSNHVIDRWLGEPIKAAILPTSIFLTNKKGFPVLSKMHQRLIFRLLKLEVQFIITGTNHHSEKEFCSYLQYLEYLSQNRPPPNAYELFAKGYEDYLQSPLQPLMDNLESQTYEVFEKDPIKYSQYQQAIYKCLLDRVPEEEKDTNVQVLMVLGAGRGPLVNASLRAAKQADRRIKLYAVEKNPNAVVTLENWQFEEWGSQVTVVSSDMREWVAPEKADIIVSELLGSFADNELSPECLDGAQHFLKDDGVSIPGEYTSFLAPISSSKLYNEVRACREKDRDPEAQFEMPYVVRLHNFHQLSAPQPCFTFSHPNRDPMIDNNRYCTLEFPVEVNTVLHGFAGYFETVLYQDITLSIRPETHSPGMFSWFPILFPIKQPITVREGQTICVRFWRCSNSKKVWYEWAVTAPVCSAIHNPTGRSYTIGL
Chain of PRMT5-MEP50 (Q9BQA1 whole entry partner): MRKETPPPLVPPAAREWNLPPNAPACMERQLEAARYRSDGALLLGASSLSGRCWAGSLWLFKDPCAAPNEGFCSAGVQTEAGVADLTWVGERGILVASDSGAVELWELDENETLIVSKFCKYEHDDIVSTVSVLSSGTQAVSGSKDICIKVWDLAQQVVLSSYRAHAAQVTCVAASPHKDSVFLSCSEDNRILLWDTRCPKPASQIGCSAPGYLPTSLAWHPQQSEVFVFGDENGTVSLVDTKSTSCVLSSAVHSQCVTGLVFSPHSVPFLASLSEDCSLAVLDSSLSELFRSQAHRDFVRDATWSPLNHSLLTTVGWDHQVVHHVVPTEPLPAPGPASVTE
Chain of METTL1/WDR4 (Q9UBP6 whole entry, species assumed): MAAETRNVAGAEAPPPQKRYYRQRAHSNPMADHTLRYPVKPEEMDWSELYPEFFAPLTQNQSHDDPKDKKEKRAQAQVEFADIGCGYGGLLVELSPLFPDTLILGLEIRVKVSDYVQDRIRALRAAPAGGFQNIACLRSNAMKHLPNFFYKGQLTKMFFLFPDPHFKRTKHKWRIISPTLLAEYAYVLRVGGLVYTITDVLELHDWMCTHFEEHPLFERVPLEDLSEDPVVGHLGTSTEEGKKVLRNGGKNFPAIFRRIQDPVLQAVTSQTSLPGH
Chain of METTL1/WDR4 (P57081 whole entry partner, species assumed): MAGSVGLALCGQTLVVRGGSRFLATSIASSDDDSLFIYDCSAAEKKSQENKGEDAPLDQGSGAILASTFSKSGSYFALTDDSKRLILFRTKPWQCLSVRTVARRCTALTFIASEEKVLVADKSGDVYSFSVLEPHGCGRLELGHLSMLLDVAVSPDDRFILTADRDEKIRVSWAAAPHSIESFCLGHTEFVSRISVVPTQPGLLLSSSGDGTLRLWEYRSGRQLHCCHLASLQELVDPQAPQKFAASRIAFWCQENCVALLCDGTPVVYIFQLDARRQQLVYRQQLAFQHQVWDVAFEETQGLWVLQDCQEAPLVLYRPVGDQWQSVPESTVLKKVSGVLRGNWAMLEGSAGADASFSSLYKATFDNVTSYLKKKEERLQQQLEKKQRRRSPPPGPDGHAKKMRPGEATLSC

Row | SMILES | IC50 [1] [nM] | IC50 [2] [nM] | IC50 [3] [nM] | IC50 [2, 5] [nM] | IC50 [4] [nM]
1 | CNc1ccc2ccc(OCc3cc(-n4ccc5c(N)ncnc54)n[nH]3)cc2n1 [Compound I-2] | > 1000 | > 1000 |  |  | 
2 | CNc1ccc2ccc(OCc3cncc(-n4cc(C5CCC(F)(F)CC5)c5c(N)ncnc54)c3)cc2n1 [Compound I-3] | > 1000 |  | 10 to 100 | > 1000 | 
3 | CNc1ccc2ccc(OC(C)c3cncc(-n4ccc5c(N)ncnc54)c3)cc2n1 (stereo not drawn) [Compound I-4] | > 1000 |  |  | > 1000 | 
4 | CNc1ccc2cc(F)c(OCc3cncc(-n4cc(C5CCCC5)c5c(N)ncnc54)c3)cc2n1 [Compound I-5] | > 1000 |  |  | > 1000 | 
5 | CCc1nc(N)c2ccn(-c3cncc(COc4ccc5ccc(NC)nc5c4)c3)c2n1 [Compound I-8] | > 1000 |  | < 10 | > 1000 | 
6 | CNc1ccc2ccc(OCc3cc(-n4cc(Cl)c5c(N)ncnc54)cnc3NC)cc2n1 [Compound I-13] | > 1000 |  | 10 to 100 | > 1000 | 
7 | CNc1ccc2ccc(OCc3nc(-n4ccc5c(N)ncnc54)cs3)cc2n1 [Compound I-19] | > 1000 | > 1000 | 10 to 100 |  | 
8 | CNc1ccc2ccc(OCc3cc(C(N)=O)cc(-n4cc(Cl)c5c(N)ncnc54)c3)cc2n1 [Compound I-21] | > 1000 |  | 100 to 1000 | > 1000 | 
9 | CNc1ccc2ccc(COc3cncc(-n4ccc5c(N)ncnc54)c3)cc2n1 [Compound I-22, 7-{[(5-{4-amino-7H-pyrrolo[2,3-d]pyrimidin-7-yl}pyridin-3-yl)oxy]methyl}-N-methylquinolin-2-amine] | > 1000 |  | 10 to 100 | > 1000 | 
10 | Nc1ncnc2c1c(Cl)cn2-c1csc(COc2ccc3ccc(N4CCCC4)nc3c2)n1 [Compound I-23, 5-chloro-7-(2-(((2-(pyrrolidin-1-yl)quinolin-7-yl)oxy)methyl)thiazol-4-yl)-7H-pyrrolo[2,3-d]pyrimidin-4-amine hydrochloride] | > 1000 | > 1000 | > 1000 |  | 
11 | CNc1ccc2ccc(OCc3ncc(-n4cc(Cl)c5c(N)ncnc54)s3)cc2n1 [Compound I-24] | > 1000 | > 1000 | > 1000 |  | 
12 | Nc1ncnc2c1ccn2-c1cncc(COc2ccc3ccc(N4CCCC4)nc3c2)c1 [Compound I-26] | > 1000 |  | 10 to 100 |  | > 1000
13 | CNc1ccc2ccc(OCc3cncc(-n4cc(CCN(C)C)c5c(N)ncnc54)c3)cc2n1 [Compound I-27] | > 1000 |  | 10 to 100 |  | > 1000
14 | C=CC(=O)Nc1nc(N)c2ccn(-c3cncc(COc4ccc5ccc(NC)nc5c4)c3)c2n1 [Compound I-31] | > 1000 |  | > 1000 |  | > 1000
15 | CNc1ccc2ccc(OCc3nc(-n4cc(Cl)c5c(N)ncnc54)cs3)cc2n1 [Compound I-37] | > 1000 |  | 10 to 100 | > 1000 | 
16 | Nc1ncnc2c1c(Cl)cn2-c1nnc(COc2ccc3ccc(N4CCCC4)nc3c2)s1 [Compound I-38, 5-chloro-7-(5-(((2-(pyrrolidin-1-yl)quinolin-7-yl)oxy)methyl)-1,3,4-thiadiazol-2-yl)-7H-pyrrolo[2,3-d]pyrimidin-4-amine trifluoroacetate] | > 1000 | > 1000 | > 1000 |  | 
17 | CC(C)Nc1ccc2ccc(OCc3cncc(-n4cc(Cl)c5c(N)ncnc54)c3)cc2n1 [Compound I-39] | > 1000 |  | 10 to 100 |  | > 1000
18 | Nc1ncnc2c1c(Cl)cn2-c1cncc(COc2ccc3ccc(N4CCCC4)nc3c2)c1 [Compound I-40] | > 1000 |  | 10 to 100 |  | > 1000
19 | Nc1ncnc2c1ccn2-c1cncc(COc2ccc3c(=O)cc[nH]c3c2)c1 [Compound I-88] | > 1000 |  | > 1000 | > 1000 | 
20 | CCc1cc(NCCN(C)C)c2ccc(OCc3cncc(-n4ccc5c(N)ncnc54)n3)cc2n1 [Compound I-89] | > 1000 |  | < 10 | > 1000 | 
21 | CC(C)c1nc(N)c2ccc(OCc3cncc(-n4ccc5c(N)ncnc54)c3)cc2n1 [Compound I-91] | > 1000 |  | 10 to 100 | > 1000 | 
22 | CC(C)(C)c1cc(N)c2ccc(OCc3cncc(-n4ccc5c(N)ncnc54)c3)cc2n1 [Compound I-93] | > 1000 |  | < 10 | > 1000 | 
23 | Nc1ncnc2c1c(C1CCCC1)cn2-c1cncc(COc2ccc3ccc(N4CCC4)nc3c2)c1 [Compound I-94] | > 1000 |  | < 10 | > 1000 | 
24 | CCCC(=O)c1cn(-c2cncc(COc3ccc4ccc(NC)nc4c3)c2)c2ncnc(N)c12 [Compound I-96] | > 1000 |  | 10 to 100 | > 1000 | 
25 | Cc1cc(NCCN(C)CCCc2ccccc2)c2ccc(OCc3cncc(-n4ccc5c(N)ncnc54)c3)cc2n1 [Compound I-98] | > 1000 |  | 10 to 100 | > 1000 | 
26 | CN(Cc1cncc(-n2cc(-c3ccn(C)n3)c3c(N)ncnc32)c1)CC1CC1 [Compound I-100] | > 1000 |  | > 1000 | > 1000 | 
27 | Nc1ccc2ccc(OCc3cncc(-n4ccc5c(N)ncnc54)c3)cc2n1 [Compound I-240] | > 1000 |  | 10 to 100 | > 1000 | 
